Source: ChEMBL document CHEMBL1139986, “Synthesis and biodistribution of 8-iodo-11-(4-methylpiperazino)-5H-dibenzo[b,e][1,4]-diazepine: Iozapine” (Bioorg Med Chem Lett, 2007)

How the values were obtained:
Settings in all cases: in vivo
Thyroid gland [1] = test: Biodistribution in rabbit thyroid at 20 MBq after 2.0 hrs; assay type: ADME, organism-based, Oryctolagus cuniculus
Brain [2] = test: Biodistribution in rabbit brain at 20 MBq after 2.5 hrs; assay type: ADME, organism-based, Oryctolagus cuniculus
Oryctolagus cuniculus [3] = species: Oryctolagus cuniculus; test: Biodistribution in rabbit whole body at 20 MBq after 20.0 hrs; assay type: ADME, organism-based
Brain [4] = test: Biodistribution in rabbit brain at 20 MBq after 1 hr; assay type: ADME, organism-based, Oryctolagus cuniculus
Brain [5] = test: Biodistribution in rabbit brain at 20 MBq after 3.0 hrs; assay type: ADME, organism-based, Oryctolagus cuniculus
Lung [6] = test: Biodistribution in rabbit lung at 20 MBq after 2.5 hrs; assay type: ADME, organism-based, Oryctolagus cuniculus
Lung [7] = test: Biodistribution in rabbit lung at 20 MBq; assay type: ADME, organism-based, Oryctolagus cuniculus
Thyroid gland [8] = test: Biodistribution in rabbit thyroid at 20 MBq after 20.0 hrs; assay type: ADME, organism-based, Oryctolagus cuniculus
Oryctolagus cuniculus [9] = species: Oryctolagus cuniculus; test: Biodistribution in rabbit whole body at 20 MBq after 0.5 hrs; assay type: ADME, organism-based
Lung [10] = test: Biodistribution in rabbit lung at 20 MBq after 1 hr; assay type: ADME, organism-based, Oryctolagus cuniculus
Oryctolagus cuniculus [11] = species: Oryctolagus cuniculus; test: Biodistribution in rabbit whole body at 20 MBq after 1 hr; assay type: ADME, organism-based
Thyroid gland [12] = test: Biodistribution in rabbit thyroid at 20 MBq after 1.5 hrs; assay type: ADME, organism-based, Oryctolagus cuniculus
Oryctolagus cuniculus [13] = species: Oryctolagus cuniculus; test: Biodistribution in rabbit whole body at 20 MBq after 1.5 hrs; assay type: ADME, organism-based
Lung [14] = test: Biodistribution in rabbit lung at 20 MBq after 3.0 hrs; assay type: ADME, organism-based, Oryctolagus cuniculus
Brain [15] = test: Biodistribution in rabbit brain at 20 MBq after 20.0 hrs; assay type: ADME, organism-based, Oryctolagus cuniculus
Thyroid gland [16] = test: Biodistribution in rabbit thyroid at 20 MBq after 3.0 hrs; assay type: ADME, organism-based, Oryctolagus cuniculus
Brain [17] = test: Biodistribution in rabbit brain at 20 MBq; assay type: ADME, organism-based, Oryctolagus cuniculus
Lung [18] = test: Biodistribution in rabbit lung at 20 MBq after 1.5 hrs; assay type: ADME, organism-based, Oryctolagus cuniculus
Thyroid gland [19] = test: Biodistribution in rabbit thyroid at 20 MBq after 0.5 hrs; assay type: ADME, organism-based, Oryctolagus cuniculus
Oryctolagus cuniculus [20] = species: Oryctolagus cuniculus; test: Biodistribution in rabbit whole body at 20 MBq after 2.0 hrs; assay type: ADME, organism-based
Brain [21] = test: Biodistribution in rabbit brain at 20 MBq after 0.5 hrs; assay type: ADME, organism-based, Oryctolagus cuniculus
Oryctolagus cuniculus [22] = species: Oryctolagus cuniculus; test: Biodistribution in rabbit whole body at 20 MBq after 3.0 hrs; assay type: ADME, organism-based
Brain [23] = test: Biodistribution in rabbit brain at 20 MBq after 1.5 hrs; assay type: ADME, organism-based, Oryctolagus cuniculus
Lung [24] = test: Biodistribution in rabbit lung at 20 MBq after 20.0 hrs; assay type: ADME, organism-based, Oryctolagus cuniculus
Thyroid gland [25] = test: Biodistribution in rabbit thyroid at 20 MBq after 2.5 hrs; assay type: ADME, organism-based, Oryctolagus cuniculus
Thyroid gland [26] = test: Biodistribution in rabbit thyroid at 20 MBq after 1 hr; assay type: ADME, organism-based, Oryctolagus cuniculus
Oryctolagus cuniculus [27] = species: Oryctolagus cuniculus; test: Biodistribution in rabbit whole body at 20 MBq; assay type: ADME, organism-based
Lung [28] = test: Biodistribution in rabbit lung at 20 MBq after 2.0 hrs; assay type: ADME, organism-based, Oryctolagus cuniculus
Brain [29] = test: Biodistribution in rabbit brain at 20 MBq after 2.0 hrs; assay type: ADME, organism-based, Oryctolagus cuniculus
Oryctolagus cuniculus [30] = species: Oryctolagus cuniculus; test: Biodistribution in rabbit whole body at 20 MBq after 2.5 hrs; assay type: ADME, organism-based
Thyroid gland [31] = test: Biodistribution in rabbit thyroid at 20 MBq; assay type: ADME, organism-based, Oryctolagus cuniculus
Lung [32] = test: Biodistribution in rabbit lung at 20 MBq after 0.5 hrs; assay type: ADME, organism-based, Oryctolagus cuniculus

Drug uptake (Thyroid gland [1]): 1.4 %ID
Drug uptake (Brain [2]): 1.5 %ID
Drug uptake (Oryctolagus cuniculus [3]): 54.6 %ID
Drug uptake (Brain [4]): 1.8 %ID
Drug uptake (Brain [5]): 1.2 %ID
Drug uptake (Lung [6]): 6 %ID
Drug uptake (Lung [7]): 14.7 %ID
Drug uptake (Thyroid gland [8]): 1.9 %ID
Drug uptake (Oryctolagus cuniculus [9]): 98.7 %ID
Drug uptake (Lung [10]): 10.4 %ID
Drug uptake (Oryctolagus cuniculus [11]): 95.8 %ID
Drug uptake (Thyroid gland [12]): 1.3 %ID
Drug uptake (Oryctolagus cuniculus [13]): 97.7 %ID
Drug uptake (Lung [14]): 6.4 %ID
Drug uptake (Brain [15]): 0.7 %ID
Drug uptake (Thyroid gland [16]): 1.4 %ID
Drug uptake (Brain [17]): 2.2 %ID
Drug uptake (Lung [18]): 8.1 %ID
Drug uptake (Thyroid gland [19]): 1.4 %ID
Drug uptake (Oryctolagus cuniculus [20]): 97.4 %ID
Drug uptake (Brain [21]): 2.2 %ID
Drug uptake (Oryctolagus cuniculus [22]): 96.9 %ID
Drug uptake (Brain [23]): 1.6 %ID
Drug uptake (Lung [24]): 2.3 %ID
Drug uptake (Thyroid gland [25]): 1.2 %ID
Drug uptake (Thyroid gland [26]): 1.4 %ID
Drug uptake (Oryctolagus cuniculus [27]): 100 %ID
Drug uptake (Lung [28]): 7.6 %ID
Drug uptake (Brain [29]): 1.5 %ID
Drug uptake (Oryctolagus cuniculus [30]): 99.4 %ID
Drug uptake (Thyroid gland [31]): 1.5 %ID
Drug uptake (Lung [32]): 10.7 %ID
Compound: CN1CCN(C2=Nc3cc([123I])ccc3Nc3ccccc32)CC1 [[123I]I-OZAPINE]
